# Where “and” joins values, the source holds several entries; their conditions need not be identical. Equal entries are not always repeated.
# Tests used:
# [1] = Kinetic analysis of AB23A hydrolysis in human plasma; type: in vitro ADME; conditions: 25% dilution
# Experimental: (§1) The enzymatic kinetics of AB23A hydrolysis in different tissue preparations (HLMs, HIMs, human plasma) and human recombinant enzymes (hCES1A, hCES2A, hSA, hBchE) were analyzed. The incubation system (200 μL) consisted of PBS, each tested enzyme, and AB23A (ranging from 0 to 1,000 μM). After incubating for 1 h, the supernatants were then used for LC-UV analysis. The kinetic parameters of AB23A hydrolysis were fitted by the following Michaelis−Menten Eq. 1 ([Zhang et al., 2022]). V=(Vmax×[S])⁄(Km+[S]) (1) Here, K m is the Michaelis constant of AB23A hydrolysis, V max is the maximum velocity of AB23A hydrolysis, V max /K m is used to calculate the intrinsic clearance (CL int ).
# [2] = Hydrolytic half-life of AB23A in human liver microsomes; type: in vitro ADME; conditions: human liver microsomes (HLMs), HLMs 0.1 mg/mL, PBS pH 7.4, read-out: t1/2 (hydrolytic/metabolic half-life)
# Experimental: (§2) The hydrolytic half-lives (t1/2) of AB23A in human plasma and different human tissue preparations were carried out according to the procedure of in vitro metabolic stability studies ([Ge et al., 2013]). The incubation mixture (1,000 μL) consisted of PBS (pH 7.4), enzyme sources (HLMs/HIMs/human plasma) and AB23A. 25% diluted human plasma was used, the protein concentrations of other tissue microsomes were 0.1 mg/mL. The 100 μL incubation mixture was moved to another containing ice-cold acetonitrile tube at different time points (0, 5, 15, 30, 45, 60, 90, 120 min). All samples were centrifuged for 30 min at 20,000 g 4°C and took the supernatants for LC-UV analysis.
# (§3) The incubation conditions were as follows: the classic incubation system included 100 mM potassium phosphate buffer (PBS, pH 7.4), enzyme sources, and AB23A. In all incubations, PBS and enzyme sources were pre-incubation at 37 °C for 3 min and the reaction was started by adding AB23A (the organic solvent content at most 1%). After reacting 1 h, ice-cold acetonitrile was added to terminate the reaction and precipitate proteins. The samples were centrifuged for 30 min at 20000 × g, 4 °C, and the supernatants were taken for further LC-UV analysis.
# [3] = Kinetic analysis of AB23A hydrolysis in HLMs; type: in vitro ADME, human
# Experimental: as §1
# [4] = AB23A hydrolysis in human kidney microsomes; type: in vitro ADME
# Experimental: as §2, §3
# [5] = Hydrolytic half-life of AB23A in mouse liver microsomes; type: in vitro ADME; conditions: mouse liver microsomes (MLMs), pH 7.4, MLMs 0.10 mg/mL, read-out: T1/2 (hydrolytic half-life)
# [6] = target: T1, hCES1A (Homo sapiens, UniProt P23141); test: Reaction phenotyping assay of AB23A hydrolysis, hCES1A; type: in vitro ADME; conditions: hCES1A 5 μg/mL, AB23A 20 μM, 60 min, pH 7.4 at 37°C
# T1 construct: 10xHis; made in house; host or cells: HEK293-F cells, pTT5 vector, purified from conditioned medium
# T1 sequence (P23141 18-563): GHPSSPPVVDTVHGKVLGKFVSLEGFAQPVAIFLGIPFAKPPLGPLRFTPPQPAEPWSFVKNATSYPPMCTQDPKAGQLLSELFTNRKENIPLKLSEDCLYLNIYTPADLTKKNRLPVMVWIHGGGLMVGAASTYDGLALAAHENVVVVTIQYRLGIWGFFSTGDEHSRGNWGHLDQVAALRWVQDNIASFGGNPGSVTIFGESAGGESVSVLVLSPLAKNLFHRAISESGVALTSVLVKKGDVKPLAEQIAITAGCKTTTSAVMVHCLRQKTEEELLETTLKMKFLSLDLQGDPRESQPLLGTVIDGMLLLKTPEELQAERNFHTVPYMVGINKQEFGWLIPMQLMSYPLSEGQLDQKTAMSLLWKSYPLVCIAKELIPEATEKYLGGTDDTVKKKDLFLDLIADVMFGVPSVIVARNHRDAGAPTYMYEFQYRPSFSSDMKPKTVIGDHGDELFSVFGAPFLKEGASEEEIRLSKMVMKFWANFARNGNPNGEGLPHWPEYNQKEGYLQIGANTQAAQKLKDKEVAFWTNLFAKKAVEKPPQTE
# Experimental: The hydrolytic rates of AB23A in different human recombinant enzymes (hCES1A, hCES2A, hPL, hIAH1, hNotum, hAchE, hBchE, hSA, hCTSA, hMAGL) were assayed. The incubation system included PBS, each tested enzyme (5 μg/mL, final concentration), and AB23A (20 μM). After incubation for 1 h at 37°C, ice-cold acetonitrile was added to terminate the reaction and precipitate proteins. The supernatants by centrifuging were used to quantify the formation rates of AB by LC-UV analysis. The detection wavelength of AB was 196 nm.
smiles,measurement,setting,value
"CC(=O)O[C@H](C[C@@H](C)C1=C2C[C@H](O)C3[C@@]4(C)CCC(=O)C(C)(C)C4CC[C@]3(C)[C@@]2(C)CC1)[C@H]1OC1(C)C (some centres unmarked) [AB23A, Alisol B 23-acetate]",K m of AB23A hydrolysis,[1],237.10 ± 15.00 µM
same,V max of AB23A hydrolysis,[1],4.536 ± 0.09 nmol/min/mL and 4.536 ± 0.09 ^b nmol/min/mL
same,half-life,[2],41 ± 0.01 min
same,K m of AB23A hydrolysis,[3],41.18 ± 3.46 µM
same,V max of AB23A hydrolysis,[3],4.77 ± 0.08 nmol/min/mg protein and 4.77 ± 0.08 ^a nmol/min/mg protein
same,Formation of AB (hydrolytic metabolite) in HKMs,[4],trace amount of AB
same,half-life,[5],2.3 ± 0.01 min
same,Hydrolytic rate (formation of AB) in reaction phenotyping,[6],also catalyzed this hydrolytic reaction
